Patent US20110039762A1, “TARGETED ANTIMICROBIAL MOIETIES” (C3 JIAN, INC., priority 2009, published 2011)
“Also recorded” adds a separate entry of the source. Ends that are not written are not given here.

What was measured:
[1] = test system: microorganisms (e.g., bacteria, yeasts, fungi); assay: Targeting peptide binding to target microorganisms (Table 3); details: microorganism(s) the targeting peptide binds, preferably 1x PBS
S. epidermidis [2] = assay: Kill or inhibit growth/proliferation; morphology, biofilm and growth disruption (Tables 5, 6); type: cell-based, Staphylococcus epidermidis; design: key: A: Peptide aggregates; B: Less hyphal formation; Clumps; Diffuse clumps and small polyps; F: Diffuse growth; H: Thin; I: Growth inhibition; Microcolony formation; Rippled; Small polyps; Thick; W: Halo formation on top, microlonies on bottom; also: test concentration or dose not given here
S. epidermidis [3] = type: cell-based, Staphylococcus epidermidis; details: S. epidermidis
Protocol: (§1) Typically, the in vitro antimicrobial activity of antimicrobial agents is tested using standard NCCLS bacterial inhibition assays, or MIC tests (see, National Committee on Clinical Laboratory Standards “Performance Standards for Antimicrobial Susceptibility Testing,” NCCLS Document M100-S5 Vol. 14, No. 16, December 1994; “Methods for dilution antimicrobial susceptibility test for bacteria that grow aerobically-Third Edition,” Approved Standard M7-A3, National Committee for Clinical Standards, Villanova, Pa.).
(§2) Briefly, ˜1×10^5 cfu/mL bacteria were diluted in TH (S. mutans), or Mueller-Hinton (MH) broth (all other organisms) and distributed to 96-well plates. Serially-diluted (2-fold) peptides were then added and the plates incubated at 37° C. for 18-24 h. […] All experiments were conducted 10 times.

microorganisms = assay: Peptides having multiple activities (targeting/binding, antimicrobial, growth or phenotype altering)
Text: In certain embodiments, peptides described herein can have multiple activities. Thus for example, a peptide can have both binding/targeting activity and antimicrobial activity. Such peptides can be used, e.g., in a chimeric construct, for any or all of these properties. Thus, for example, a peptide designated “B” in Table 8 can be used as a targeting peptide. If it is also designated G or M it can also be used for antimicrobial activity.

B. subtilis [4] = assay: Kill or inhibit growth/proliferation; morphology, biofilm and growth disruption (Tables 5, 6); type: cell-based, Bacillus subtilis; design: key: A: Peptide aggregates; B: Less hyphal formation; Clumps; Diffuse clumps and small polyps; F: Diffuse growth; H: Thin; I: Growth inhibition; Microcolony formation; Rippled; Small polyps; Thick; W: Halo formation on top, microlonies on bottom; also: test concentration or dose not given here
B. subtilis [5] = assay: MIC (broth microdilution); type: cell-based, Bacillus subtilis
Protocol: as §1, §2

T. rubrum = assay: MIC (broth microdilution); type: cell-based, Trichophyton rubrum
Protocol: as §1, §2

MRSA [6] = assay: Kill or inhibit growth/proliferation; morphology, biofilm and growth disruption (Tables 5, 6); type: cell-based, Methicillin-resistant Staphylococcus aureus; design: key: A: Peptide aggregates; B: Less hyphal formation; Clumps; Diffuse clumps and small polyps; F: Diffuse growth; H: Thin; I: Growth inhibition; Microcolony formation; Rippled; Small polyps; Thick; W: Halo formation on top, microlonies on bottom; also: test concentration or dose not given here
P. mirabilis = assay: as above; type: cell-based; design: key: A: Peptide aggregates; B: Less hyphal formation; Clumps; Diffuse clumps and small polyps; F: Diffuse growth; H: Thin; I: Growth inhibition; Microcolony formation; Rippled; Small polyps; Thick; W: Halo formation on top, microlonies on bottom; also: test concentration or dose not given here
M. luteus = assay: as above; type: cell-based, Micrococcus luteus; design: key: A: Peptide aggregates; B: Less hyphal formation; Clumps; Diffuse clumps and small polyps; F: Diffuse growth; H: Thin; I: Growth inhibition; Microcolony formation; Rippled; Small polyps; Thick; W: Halo formation on top, microlonies on bottom
S. mutans [7] = assay: as above; type: cell-based, Streptococcus mutans; design: key: A: Peptide aggregates; B: Less hyphal formation; Clumps; Diffuse clumps and small polyps; F: Diffuse growth; H: Thin; I: Growth inhibition; Microcolony formation; Rippled; Small polyps; Thick; W: Halo formation on top, microlonies on bottom
S. pneumoniae = assay: as above; type: cell-based, Streptococcus pneumoniae; design: key: A: Peptide aggregates; B: Less hyphal formation; Clumps; Diffuse clumps and small polyps; F: Diffuse growth; H: Thin; I: Growth inhibition; Microcolony formation; Rippled; Small polyps; Thick; W: Halo formation on top, microlonies on bottom; also: test concentration or dose not given here
E. coli = assay: as above; type: cell-based, Escherichia coli; design: key: A: Peptide aggregates; B: Less hyphal formation; Clumps; Diffuse clumps and small polyps; F: Diffuse growth; H: Thin; I: Growth inhibition; Microcolony formation; Rippled; Small polyps; Thick; W: Halo formation on top, microlonies on bottom
MRSA [8] = assay: MIC (broth microdilution); type: cell-based, Methicillin-resistant Staphylococcus aureus
Protocol: as §1, §2

A. niger = assay: MIC (broth microdilution); type: cell-based, Aspergillus niger
Protocol: as §1, §2

P. aeruginosa = assay: Kill or inhibit growth/proliferation; morphology, biofilm and growth disruption (Tables 5, 6); type: cell-based, Pseudomonas aeruginosa; design: key: A: Peptide aggregates; B: Less hyphal formation; Clumps; Diffuse clumps and small polyps; F: Diffuse growth; H: Thin; I: Growth inhibition; Microcolony formation; Rippled; Small polyps; Thick; W: Halo formation on top, microlonies on bottom; also: test concentration or dose not given here
S. mutans [9] = type: cell-based, Streptococcus mutans; details: S. mutans
Protocol: as §1, §2

E. faecalis = assay: Kill or inhibit growth/proliferation; morphology, biofilm and growth disruption (Tables 5, 6); type: cell-based, Enterococcus faecalis; design: key: A: Peptide aggregates; B: Less hyphal formation; Clumps; Diffuse clumps and small polyps; F: Diffuse growth; H: Thin; I: Growth inhibition; Microcolony formation; Rippled; Small polyps; Thick; W: Halo formation on top, microlonies on bottom; also: test concentration or dose not given here
[10] = binding in aqueous buffers depending on peptide solubility
For Organism, effect (morphology, biofilm and growth disruption) in this document: test concentration or dose not given here.
For Organism, effect in this document: test concentration or dose not given here.

Substance	Organism, effect (S. epidermidis [2])	Activities (microorganisms)	MIC (T. rubrum)	Organism, effect (MRSA [6])	Organism, effect (P. mirabilis)	Organism, effect (M. luteus)	Organism, effect (S. mutans [7])	Organism, effect (S. pneumoniae)	Organism, effect (E. coli)	other results
MIRIRSPTKKKLNRNSISDWKSNTSGRFFY [PF-283]	S. epidermidis (H)	G B M	T. rubrum, 50 μM							Target(s) [1, 10]: B. subtilis; also recorded: B. fragilis; also recorded: C. difficile; MIC (S. epidermidis [3]): S. epidermidis, 50 μM; Organism, effect (B. subtilis [4]): B. subtilis (H); MIC (B. subtilis [5]): B. subtilis, 50 μM
PF-578: peptide having multiple activities (chain 1 QKANLRIGFTYTSDSNVCNLTFALLGSK; chain 2 QKANLRIGFTYTSDSNVCNLTFALLGSK; Peptide with targeting and/or antimicrobial activity)	S. epidermidis (D)	G B		MRSA (C)	P. mirabilis (C)	M. luteus (C)	S. mutans (D)	S. pneumoniae (D)	E. coli (C)	
PF-612: peptide having multiple activities (GTTLKYGLERQLKIDIHPEITIINLNGGADEFAKL; Peptide with targeting and/or antimicrobial activity)	S. epidermidis (C)	G B		MRSA (C)	P. mirabilis (C)	M. luteus (A)	S. mutans (F)	S. pneumoniae (C)	E. coli (C)	
PF-624 (VFLLDSYCFVKINL; Peptide with targeting and/or antimicrobial activity)	S. epidermidis (D)			MRSA (C)	P. mirabilis (C)	M. luteus (C)	S. mutans (D)	S. pneumoniae (D)	E. coli (C)	
PF-634: peptide having multiple activities (chain 1 MPKARPVNHNKKKSKITIKSNFTLFYMFNP; chain 2 MPKARPVNHNKKKSKITIKSNFTLFYMFNP; Peptide with targeting and/or antimicrobial activity)	S. epidermidis (D)	G B		MRSA (D)	P. mirabilis (C)	M. luteus (C)	S. mutans (D)	S. pneumoniae (D)	E. coli (C)	
PF-770: peptide having multiple activities (GVGIGFIMMGVVGYAVKLVHIPIRYLIV; Peptide with targeting and/or antimicrobial activity)		G B								Organism, effect (morphology, biofilm and growth disruption) (MRSA [6]): MRSA (D); Organism, effect (morphology, biofilm and growth disruption) (P. mirabilis): P. mirabilis (C); Organism, effect (morphology, biofilm and growth disruption) (M. luteus): M. luteus (C); Organism, effect (morphology, biofilm and growth disruption) (S. epidermidis [2]): S. epidermidis (D); Organism, effect (morphology, biofilm and growth disruption) (S. mutans [7]): S. mutans (D); Organism, effect (morphology, biofilm and growth disruption) (S. pneumoniae): S. pneumoniae (C); Organism, effect (morphology, biofilm and growth disruption) (E. coli): E. coli (C)
VLPFPAIPLSRRRACVAAPRPRSRQRAS [PF-168]		G B M	T. rubrum, 50 μM	MRSA (I)						Target(s) [1, 10]: S. epidermidis and M. luteus and E. coli and C. albicans and MRSA and C. jeikeium and C. jejuni; MIC (MRSA [8]): MRSA , 50 μM; MIC (A. niger): A. niger, 50 μM; Organism, effect (P. aeruginosa): P. aeruginosa (H)
WSRVPGHSDTGWKVWHRW-NH2 [PF-547]	S. epidermidis (R)	G B M	T. rubrum, 25 μM	MRSA (M)						Target(s) ([1]; peptide binding conducted in aqueous buffers varied by peptide solubility): S. epidermidis and E. coli and P. aeruginosa and C. albicans and MRSA and S. pneumoniae and E. faecalis; MIC (S. mutans [9]): S. mutans, 12.5 μM; Organism, effect (B. subtilis [4]): B. subtilis (I); MIC (B. subtilis [5]): B. subtilis, 25 μM; Organism, effect (E. faecalis): E. faecalis (R)
